In US20250339569A1, “CARBONIC ANHYDRASE IX LIGANDS” (priority 2021, published 2025):
Starred links: 1 amine or outer side, 2 acyl side, 3 side chain; linkers in the order of their positions; H or OH if unused. Positions of bridges follow the written chain, without caps; N, C: chain ends. Non-standard residues stand in square brackets, D forms with d. Residues, ends and D or L forms follow the SMILES beside them. *: point of attachment. NH(CH2)3NH(O2Oc(DOTA)) = O=C(O)CN1CCN(CC(=O)O)CCN(CC(=O)NCCOCCOCC(=O)NCCCN*)CCN(CC(=O)O)CC1; NH(CH2)3NHDOTA = O=C(O)CN1CCN(CC(=O)O)CCN(CC(=O)NCCCN*)CCN(CC(=O)O)CC1; DOTA = O=C(O)CN1CCN(CC(=O)O)CCN(CC(=O)*)CCN(CC(=O)O)CC1; mXylylene = c1cc(C[*:1])cc(C[*:2])c1; X2 = O=C(CN1CCC(N[*:1])CC1)[*:2]; Isovaleryl = CC(C)CC(=O)*; Orn = NCCC[C@H](N)C(=O)O; Dab = NCC[C@H](N)C(=O)O

The compounds below were run against T1, CAIX-expressing human HT-29 colorectal cancer cells (Homo sapiens, UniProt Q16790) (assay: FACS binding assay (IC50 determination, competition with tracer 3BP-2776 or 3BP-4149)). Conditions: FACS binding assay, HT-29 cells, competition with tracer 3BP-2776 (10 nM, biotin-labeled), 4° C., 1 hour; read-out: pIC50 category (activity) (converted).
T1 construct: CAIX-expressing human HT-29 colorectal cancer cells; host or cells: HT-29 human colorectal cancer cells
Outline: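 HT-29 cells in FACS buffer (PBS, 1% FCS) at 500.000 cells/ml were exposed to compounds competing with a labelled tracer, with biotinylated compounds detected by 1 μg/mL APC-streptavidin for 30 min on ice. APC/Cy5 median fluorescence was read by flow cytometry and IC50 derived by 4PL fit.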

| SMILES | IC50 [nM] |
| --- | --- |
| CC(=O)N[C@H](C(=O)N[C@@H](Cc1ccc(O)cc1)C(=O)N[C@H]1CSCc2cccc(c2)CSC[C@@H](C(N)=O)NC(=O)[C@H](CO)NC(=O)[C@H](Cc2c[nH]c3ccccc23)NC(=O)[C@@H]2CCC(=O)NCCC[C@H](NC(=O)[C@H]3CCCN3C(=O)[C@H](CCC(=O)O)NC1=O)C(=O)N[C@@H](Cc1c[nH]c3ccccc13)C(=O)N[C@@H](CC(C)C)C(=O)N2)C(C)C [3BP-3958] (Ac-VYCE[dP][Orn]WLEWSC-NH2; linker 3-12 via mXylylene; lactam 6-9) | 10 to 79.4 |
| CC(=O)N[C@H](C(=O)N[C@@H](Cc1ccc(O)cc1)C(=O)N[C@H]1CSCc2cccc(c2)CSC[C@@H](C(N)=O)NC(=O)[C@H](CO)NC(=O)[C@H](Cc2c[nH]c3ccccc23)NC(=O)[C@@H]2CCC(=O)NCC[C@H](NC(=O)[C@H]3CCCN3C(=O)[C@H](CCC(=O)O)NC1=O)C(=O)N[C@@H](Cc1c[nH]c3ccccc13)C(=O)N[C@@H](CC(C)C)C(=O)N2)C(C)C [3BP-3960] (Ac-VYCE[dP][Dab]WLEWSC-NH2; linker 3-12 via mXylylene; lactam 6-9) | 10 to 79.4 |

Same assay, conditions: FACS competition on HT-29 cells, Tracer ID 3BP-2776 (10 nM, biotin-labeled), 4° C., 1 hour; read-out: pIC50 category (activity) (converted)

| SMILES | IC50 [nM] |
| --- | --- |
| CC(=O)N[C@H](C(=O)N[C@@H](Cc1ccccc1)C(=O)N[C@H]1CSCc2cccc(c2)CSC[C@@H](C(N)=O)NC(=O)[C@H](CCC(=O)NCCCNC(=O)COCCOCCNC(=O)CN2CCN(CC(=O)O)CCN(CC(=O)O)CCN(CC(=O)O)CC2)NC(=O)[C@H](Cc2c[nH]c3ccccc23)NC(=O)[C@H]([C@@H](C)O)NC(=O)[C@H](CC(C)C)NC(=O)[C@H](Cc2c[nH]c3ccccc23)NC(=O)[C@H](CC(=O)O)NC(=O)[C@H]2CCCN2C(=O)[C@H](CCC(=O)O)NC1=O)C(C)C [3BP-3733] (Ac-VFCE[dP]DWLTWE(NH(CH2)3NH(O2Oc(DOTA)))C-NH2; linker 3-12 via mXylylene) | < 10 |
| CC(=O)N[C@@H](CO)C(=O)N[C@@H](CCCNC(=N)N)C(=O)N[C@H]1CSCc2cccc(c2)CSC[C@@H](C(N)=O)NC(=O)[C@H](CCC(=O)NCCCNC(=O)COCCOCCNC(=O)CN2CCN(CC(=O)O)CCN(CC(=O)O)CCN(CC(=O)O)CC2)NC(=O)[C@H](Cc2c[nH]c3ccccc23)NC(=O)[C@H]([C@@H](C)O)NC(=O)[C@H](CC(C)C)NC(=O)[C@H](Cc2c[nH]c3ccccc23)NC(=O)[C@H](CC(=O)O)NC(=O)[C@H]2CCCN2C(=O)[C@H](CCC(=O)O)NC1=O [3BP-3735] (Ac-SRCE[dP]DWLTWE(NH(CH2)3NH(O2Oc(DOTA)))C-NH2; linker 3-12 via mXylylene) | < 10 |
| CC(C)CC(=O)N[C@@H](CCCNC(=N)N)C(=O)N[C@H]1CSCc2cccc(c2)CSC[C@@H](C(N)=O)NC(=O)[C@H](CCC(=O)NCCCNC(=O)COCCOCCNC(=O)CN2CCN(CC(=O)O)CCN(CC(=O)O)CCN(CC(=O)O)CC2)NC(=O)[C@H](Cc2c[nH]c3ccccc23)NC(=O)[C@H]([C@@H](C)O)NC(=O)[C@H](CC(C)C)NC(=O)[C@H](Cc2c[nH]c3ccccc23)NC(=O)[C@H](CC(=O)O)NC(=O)[C@H]2CCCN2C(=O)[C@H](CCC(=O)O)NC1=O [3BP-3741] (Isovaleryl-RCE[dP]DWLTWE(NH(CH2)3NH(O2Oc(DOTA)))C-NH2; linker 2-11 via mXylylene) | 10 to 79.4 |
| CC(C)CC(=O)N[C@@H](Cc1ccccc1)C(=O)N[C@H]1CSCc2cccc(c2)CSC[C@@H](C(N)=O)NC(=O)[C@H](CCC(=O)NCCCNC(=O)COCCOCCNC(=O)CN2CCN(CC(=O)O)CCN(CC(=O)O)CCN(CC(=O)O)CC2)NC(=O)[C@H](Cc2c[nH]c3ccccc23)NC(=O)[C@H]([C@@H](C)O)NC(=O)[C@H](CC(C)C)NC(=O)[C@H](Cc2c[nH]c3ccccc23)NC(=O)[C@H](CC(=O)O)NC(=O)[C@H]2CCCN2C(=O)[C@H](CCC(=O)O)NC1=O [3BP-3742] (Isovaleryl-FCE[dP]DWLTWE(NH(CH2)3NH(O2Oc(DOTA)))C-NH2; linker 2-11 via mXylylene) | < 10 |
| CC(C)CC(=O)N[C@@H](CO)C(=O)N[C@H]1CSCc2cccc(c2)CSC[C@@H](C(N)=O)NC(=O)[C@H](CCC(=O)NCCCNC(=O)COCCOCCNC(=O)CN2CCN(CC(=O)O)CCN(CC(=O)O)CCN(CC(=O)O)CC2)NC(=O)[C@H](Cc2c[nH]c3ccccc23)NC(=O)[C@H]([C@@H](C)O)NC(=O)[C@H](CC(C)C)NC(=O)[C@H](Cc2c[nH]c3ccccc23)NC(=O)[C@H](CC(=O)O)NC(=O)[C@H]2CCCN2C(=O)[C@H](CCC(=O)O)NC1=O [3BP-3743] (Isovaleryl-SCE[dP]DWLTWE(NH(CH2)3NH(O2Oc(DOTA)))C-NH2; linker 2-11 via mXylylene) | < 10 |
| CC(=O)N[C@@H](Cc1ccc(O)cc1)C(=O)N[C@H]1CSCc2cccc(c2)CSC[C@@H](C(N)=O)NC(=O)[C@H](CCC(=O)NCCCNC(=O)CN2CCN(CC(=O)O)CCN(CC(=O)O)CCN(CC(=O)O)CC2)NC(=O)[C@H](Cc2c[nH]c3ccccc23)NC(=O)[C@H]([C@@H](C)O)NC(=O)[C@H](CC(C)C)NC(=O)[C@H](Cc2c[nH]c3ccccc23)NC(=O)[C@H](CC(=O)O)NC(=O)[C@H]2CCCN2C(=O)[C@H](CCC(=O)O)NC1=O [3BP-3841] (Ac-YCE[dP]DWLTWE(NH(CH2)3NHDOTA)C-NH2; linker 2-11 via mXylylene) | < 10 |
| CC(C)CC(=O)N[C@@H](CC(=O)O)C(=O)N[C@H]1CSCc2cccc(c2)CSC[C@@H](C(N)=O)NC(=O)[C@H](CCC(=O)NCCCNC(=O)COCCOCCNC(=O)CN2CCN(CC(=O)O)CCN(CC(=O)O)CCN(CC(=O)O)CC2)NC(=O)[C@H](Cc2c[nH]c3ccccc23)NC(=O)[C@H]([C@@H](C)O)NC(=O)[C@H](CC(C)C)NC(=O)[C@H](Cc2c[nH]c3ccccc23)NC(=O)[C@H](CC(=O)O)NC(=O)[C@H]2CCCN2C(=O)[C@H](CCC(=O)O)NC1=O [3BP-3871] (Isovaleryl-DCE[dP]DWLTWE(NH(CH2)3NH(O2Oc(DOTA)))C-NH2; linker 2-11 via mXylylene) | 10 to 79.4 |
| CC(C)CC(=O)N[C@@H](CCC(=O)O)C(=O)N[C@H]1CSCc2cccc(c2)CSC[C@@H](C(N)=O)NC(=O)[C@H](CCC(=O)NCCCNC(=O)COCCOCCNC(=O)CN2CCN(CC(=O)O)CCN(CC(=O)O)CCN(CC(=O)O)CC2)NC(=O)[C@H](Cc2c[nH]c3ccccc23)NC(=O)[C@H]([C@@H](C)O)NC(=O)[C@H](CC(C)C)NC(=O)[C@H](Cc2c[nH]c3ccccc23)NC(=O)[C@H](CC(=O)O)NC(=O)[C@H]2CCCN2C(=O)[C@H](CCC(=O)O)NC1=O [3BP-3872] (Isovaleryl-ECE[dP]DWLTWE(NH(CH2)3NH(O2Oc(DOTA)))C-NH2; linker 2-11 via mXylylene) | 10 to 79.4 |
| CC(=O)N[C@H](C(=O)N[C@@H](Cc1ccc(O)cc1)C(=O)N[C@H]1CSCc2cccc(c2)CSC[C@@H](C(N)=O)NC(=O)[C@H](CO)NC(=O)[C@H](Cc2c[nH]c3ccccc23)NC(=O)[C@@H]2CCC(=O)NCCCC[C@H](NC1=O)C(=O)N1CCC[C@@H]1C(=O)N[C@@H](CC(=O)O)C(=O)N[C@@H](Cc1c[nH]c3ccccc13)C(=O)N[C@@H](CC(C)C)C(=O)N2)C(C)C [3BP-3888] (Ac-VYCK[dP]DWLEWSC-NH2; linker 3-12 via mXylylene; lactam 4-9) | 10 to 79.4 |
| CC(=O)N[C@H](C(=O)N[C@@H](Cc1ccc(O)cc1)C(=O)N[C@H]1CSCc2cccc(c2)CSC[C@@H](C(N)=O)NC(=O)[C@H](CO)NC(=O)[C@H](Cc2c[nH]c3ccccc23)NC(=O)[C@@H]2CCC(=O)NCCCC[C@H](NC(=O)[C@H]3CCCN3C(=O)[C@H](CCC(=O)O)NC1=O)C(=O)N[C@@H](Cc1c[nH]c3ccccc13)C(=O)N[C@@H](CC(C)C)C(=O)N2)C(C)C [3BP-3890] (Ac-VYCE[dP]KWLEWSC-NH2; linker 3-12 via mXylylene; lactam 6-9) | < 10 |
| CC(=O)N[C@H](C(=O)N[C@@H](Cc1ccc(O)cc1)C(=O)N[C@H]1CSCc2cccc(c2)CSC[C@@H](C(N)=O)NC(=O)[C@H](CO)NC(=O)[C@H](Cc2c[nH]c3ccccc23)NC(=O)[C@@H]2CCCCNC(=O)CC[C@H](NC1=O)C(=O)N1CCC[C@@H]1C(=O)N[C@@H](CC(=O)O)C(=O)N[C@@H](Cc1c[nH]c3ccccc13)C(=O)N[C@@H](CC(C)C)C(=O)N2)C(C)C [3BP-3899] (Ac-VYCE[dP]DWLKWSC-NH2; linker 3-12 via mXylylene; lactam 4-9) | 100 to 794 |
| CC(=O)N[C@H](C(=O)N[C@@H](Cc1ccc(O)cc1)C(=O)N[C@H]1CSCc2cccc(c2)CSC[C@@H](C(N)=O)NC(=O)[C@H](CO)NC(=O)[C@H](Cc2c[nH]c3ccccc23)NC(=O)[C@@H]2CCCCNC(=O)CC[C@H](NC(=O)[C@H]3CCCN3C(=O)[C@H](CCC(=O)O)NC1=O)C(=O)N[C@@H](Cc1c[nH]c3ccccc13)C(=O)N[C@@H](CC(C)C)C(=O)N2)C(C)C [3BP-3901] (Ac-VYCE[dP]EWLKWSC-NH2; linker 3-12 via mXylylene; lactam 6-9) | 10 to 79.4 |
| CC(C)C[C@@H]1NC(=O)[C@H](Cc2c[nH]c3ccccc23)NC(=O)[C@@H]2CCCCNC(=O)CC[C@H](NC1=O)C(=O)N[C@@H](Cc1c[nH]c3ccccc13)C(=O)N[C@@H](CO)C(=O)N[C@H](C(N)=O)CSCc1cccc(c1)CSC[C@H](NC(=O)[C@H](Cc1ccc(O)cc1)NC(=O)[C@@H](NC(=O)CN1CCC(NC(=O)CN3CCN(CC(=O)O)CCN(CC(=O)O)CCN(CC(=O)O)CC3)CC1)C(C)C)C(=O)N[C@@H](CCC(=O)O)C(=O)N1CCC[C@@H]1C(=O)N2 [3BP-3933] ({DOTA}-[X2]VYCE[dP]KWLEWSC-NH2; linker 4-13 via mXylylene; lactam 7-10) | 10 to 79.4 |
| CC(=O)N[C@H](C(=O)N[C@@H](Cc1ccc(O)cc1)C(=O)N[C@H]1CSCc2cccc(c2)CSC[C@@H](C(N)=O)NC(=O)[C@H](CO)NC(=O)[C@H](Cc2c[nH]c3ccccc23)NC(=O)[C@H]2CCC(=O)NCCCC[C@H](NC(=O)[C@H]3CCCN3C(=O)[C@H](CCC(=O)O)NC1=O)C(=O)N[C@@H](Cc1c[nH]c3ccccc13)C(=O)N[C@@H](CC(C)C)C(=O)N2)C(C)C [3BP-3957] (Ac-VYCE[dP]KWL[dE]WSC-NH2; linker 3-12 via mXylylene; lactam 6-9) | < 10 |
